Article PMC11149917, “Translational and Therapeutic Evaluation of RAS-GTP Inhibition by RMC-6236 in RAS-Driven Cancers” (Cancer Discovery, 2024)
Where two headings read alike, the source gives them in different places.

Tests used:
[1] = test system: DUSP6 mRNA in NCI-H2122 xenograft tumors; test: In vivo PD by DUSP6 qPCR; set-up: species or system mouse
Method: Tumor-bearing animals were randomized and assigned into groups (n = 1–10/group). The vehicle at 10 mL/kg or RMC-6236 at indicated doses was administered via oral gavage daily, and animals were treated for 28 days, or up to 90 days if PFS was being assessed. […] For single-dose PKPD study, mice were randomized and assigned into groups (n = 3/dose/time point). A single dose of RMC-6236 was administered orally at either 3, 10, or 25 mg/kg. Blood and tissues, including the tumor, brain, colon, ear skin, and muscle, were harvested at indicated time points. Whole blood was collected in K2EDTA Microtainer tubes, incubated for 5 minutes, and snap-frozen in liquid nitrogen. The tissue was either fixed in 10% formalin or snap-frozen in liquid nitrogen for further analysis.
RNA was extracted from at least 20 mg of tissue using an RNeasy Mini Kit (Qiagen, 74104) and a High-Throughput Tissue grinder following the manufacturer's protocol. Reverse transcription was carried out using High-Capacity cDNA Reverse Transcription Kit (ABI, 4368814) according to the manufacturer's protocol. The cDNA product was used for qPCR analysis using TaqMan Gene-Expression Master Mix (ABI, 4369016). TaqMan primer probes specific to DUSP6 (human—Hs00737962_m1, murine—Mm00518185_m1, FAM-MGB) and 18S (RNA18S1; human—Hs99999901_s1, murine—Mm03928990_g1, FAM-MGB, used as an internal control gene) were used to detect the levels from each sample in duplicates using a 10 µL final reaction volume in a 384-well clear optical reaction plate. For qPCR, Ct values of DUSP6 and 18S were obtained for analysis. DUSP6 Ct value was normalized to 18S, and then the mean relative mRNA expression levels of each group were normalized to the vehicle control group. Values were plotted as relative change in mRNA expression compared with vehicle. Means ± SEM were shown.

[2] = test system: panel of 78 cancer cell lines; test: Cell panel 3D methylcellulose CellTiter-Glo proliferation; format: cell-based; settings: Homo sapiens
Method: A panel of 78 cancer cell lines harboring mutant and wild-type RAS was selected for screening at Crown Bioscience (Supplementary Table S2). The panel consisted of cell lines with any substitution at position 12 of KRAS, cell lines with any substitutions at position 61 of NRAS, and cell lines with a BRAF^V600E mutation. […] Cells were incubated for 120 hours prior to measurement of adenosine triphosphate (ATP) levels using the CellTiter-Glo Luminescent Cell Viability Assay (CTG; Promega, G7572), a method of determining the number of metabolically active cells based on quantitation of cellular ATP, according to the manufacturer's instructions. To measure induction of apoptosis, cells were incubated with RMC-6236 for 48 hours prior to measuring cleavage of a proluminescent caspase-3/7 DEVD-aminoluciferin substrate using the CaspaseGlo-3/7 Assay (Promega, G8092) according to the manufacturer’s instructions.

CCn1c(-c2cc(N3CCN(C)CC3)cnc2[C@H](C)OC)c2c3cc(ccc31)-c1csc(n1)C[C@H](NC(=O)[C@H]1C[C@@H]1C)C(=O)N1CCC[C@H](N1)C(=O)OCC(C)(C)C2 [RMC-6236]
DUSP6 mRNA(% normalized to control) ([1]; NCI-H2122 (25 mg/kg x 7d), 1h): 0.8% | DUSP6 mRNA(% normalized to control) ([1]; NCI-H2122 (25 mg/kg x 7d), 8h): 0.337% | DUSP6 mRNA(% normalized to control) ([1]; NCI-H2122 (25 mg/kg x 7d), 24h): 0.8% | DUSP6 mRNA(% normalized to control) ([1]; NCI-H2122 (25 mg/kg x 7d), 48h): 6.3% | DUSP6 mRNA(% normalized to control) ([1]; NCI-H2122 (25 mg/kg), 1h): 20.6% | DUSP6 mRNA(% normalized to control) ([1]; NCI-H2122 (25 mg/kg), 8h): 0.187% | DUSP6 mRNA(% normalized to control) ([1]; NCI-H2122 (25 mg/kg), 24h): 3.4% | DUSP6 mRNA(% normalized to control) ([1]; NCI-H2122 (25 mg/kg), 48h): 10.6% | EC50 ([2]; A549, A549, KRAS G12S, Lung, read-out: Proliferation Inhibition (EC50)): 54.6 nM | EC50 ([2]; A-375, A375, BRAF V600E, Skin, read-out: Proliferation Inhibition (EC50)): > 100 nM | EC50 ([2]; A-427, A427, KRAS G12D, Lung, read-out: Proliferation Inhibition (EC50)): 97.6 nM | EC50 ([2]; AGS, KRAS G12D, Stomach, read-out: Proliferation Inhibition (EC50)): 3.2 nM | EC50 ([2]; ASH3, NRAS Q61R, Head and Neck/Thyroid, read-out: Proliferation Inhibition (EC50)): 91.4 nM | EC50 ([2]; ASPC1, ASPC1, KRAS G12D, Pancreas, read-out: Proliferation Inhibition (EC50)): 6.9 nM | EC50 ([2]; CAL-62, CAL62, KRAS G12R, Head and Neck/Thyroid, read-out: Proliferation Inhibition (EC50)): 19 nM | EC50 ([2]; CAPAN-1, CAPAN1, KRAS G12V, Pancreas, read-out: Proliferation Inhibition (EC50)): 4.6 nM | EC50 ([2]; CFPAC-1, CFPAC1, KRAS G12V, Pancreas, read-out: Proliferation Inhibition (EC50)): 15.2 nM | EC50 ([2]; CHP-212, CHP212, NRAS Q61K, Brain and Nerves, read-out: Proliferation Inhibition (EC50)): 21.9 nM | EC50 ([2]; COLO 201, COLO201, BRAF V600E, Intestine/Large/Colorectum, read-out: Proliferation Inhibition (EC50)): > 100 nM | EC50 ([2]; COR-L23, CORL23, KRAS G12V, Lung, read-out: Proliferation Inhibition (EC50)): 8.6 nM | EC50 ([2]; Calu-1, CALU1, KRAS G12C, Lung, read-out: Proliferation Inhibition (EC50)): 2.1 nM | EC50 ([2]; Capan-2, CAPAN2, KRAS G12V, Pancreas, read-out: Proliferation Inhibition (EC50)): 5.8 nM | EC50 ([2]; CoC1, COC1, KRAS G12D, Ovary, read-out: Proliferation Inhibition (EC50)): 57.1 nM | EC50 ([2]; HCC15, HCC15, NRAS Q61K, Lung, read-out: Proliferation Inhibition (EC50)): > 100 nM | EC50 ([2]; HCC44, HCC44, KRAS G12C, Lung, read-out: Proliferation Inhibition (EC50)): 3.3 nM | EC50 ([2]; HEC-1-A, HEC1A, KRAS G12D, Uterus, read-out: Proliferation Inhibition (EC50)): 44.8 nM | EC50 ([2]; HM7, KRAS G12D, Intestine/Large/Colorectum, read-out: Proliferation Inhibition (EC50)): > 100 nM | EC50 ([2]; HPAC, KRAS G12D, Pancreas, read-out: Proliferation Inhibition (EC50)): 74.3 nM | EC50 ([2]; HPAF-II, HPAFII, KRAS G12D, Pancreas, read-out: Proliferation Inhibition (EC50)): 6.3 nM | EC50 ([2]; HT-1080, HT1080, NRAS Q61K, Soft tissue, read-out: Proliferation Inhibition (EC50)): 7.5 nM | EC50 ([2]; HepG2, HEPG2, NRAS Q61L, Liver, read-out: Proliferation Inhibition (EC50)): 22.8 nM | EC50 ([2]; HuCCT-1, HUCCT1, KRAS G12D, Liver/Bile duct, read-out: Proliferation Inhibition (EC50)): 25.7 nM | EC50 ([2]; HuP-T4, HUPT4, KRAS G12V, Pancreas, read-out: Proliferation Inhibition (EC50)): 19 nM | EC50 ([2]; KP4, KRAS G12D, Pancreas, read-out: Proliferation Inhibition (EC50)): 31.1 nM | EC50 ([2]; KRAS^G12X cells, read-out: median EC50, cell growth inhibition): 8 nM | EC50 ([2]; KYSE-410, KYSE410, KRAS G12C, HN/Esophagus, read-out: Proliferation Inhibition (EC50)): 63.2 nM | EC50 ([2]; LCLC-97TM1, LCLC97TM1, KRAS G12V, Lung, read-out: Proliferation Inhibition (EC50)): 1.1 nM | EC50 ([2]; LS174T, KRAS G12D, Intestine/Large/Colorectum, read-out: Proliferation Inhibition (EC50)): > 100 nM | EC50 ([2]; LS180, LS180, KRAS G12D, Intestine/Large/Colorectum, read-out: Proliferation Inhibition (EC50)): 87.1 nM | EC50 ([2]; LS-123, LS123, KRAS G12S, Intestine/Large/Colorectum, read-out: Proliferation Inhibition (EC50)): 3.8 nM | EC50 ([2]; LS-513, LS513, KRAS G12D, Intestine/Large/Colorectum, read-out: Proliferation Inhibition (EC50)): 7.1 nM | EC50 ([2]; MIA PaCa-2, MIAPACA2, KRAS G12C, Pancreas, read-out: Proliferation Inhibition (EC50)): 61.8 nM | EC50 ([2]; NCI-H23, NCIH23, KRAS G12C, Lung, read-out: Proliferation Inhibition (EC50)): 7.1 nM | EC50 ([2]; NCI-H358, NCIH358, KRAS G12C, Lung, read-out: Proliferation Inhibition (EC50)): 3.9 nM
